Patent US12479834B2, “Phenol compound or salt thereof” (TAIHO PHARMACEUTICAL CO., LTD., priority 2019, dated 2025)

Experiments:
[1] = target: T1, KRAS G12C mutant (Homo sapiens, UniProt P01116, G12C); assay: Inhibition of SOS1-mediated nucleotide (GDP-GTP) exchange reaction of KRAS G12C mutant, BODIPY FL GDP fluorescence; assay type: biochemical; conditions: preincubated 25° C. 4 hours with 25 nM KRAS G12C bound with BODIPY FL GDP; SOS1 100 nM, GppNHp 1 μM, 30 minutes
T1 construct: 50 μM G12C K-Ras4B (1-169) protein and 1 mM BODIPY® FL GDP; His tag (N, cleaved yes); made in house; host or cells: E. coli BL21 (DE3)
Procedure, shortened: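 KRAS G12C (1-169) loaded with BODIPY FL GDP (25 nM) was preincubated with compound (5% DMSO) for 4 h at 25 °C. Exchange then ran 30 min with SOS1 (564-1049, 100 nM) and 1 µM GppNHp. IC50 came from the 485/520 nm fluorescence change, normalized to DMSO and no-GppNHp controls.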

[2] = target: T2, G12C K-Ras4B (1-169) (Homo sapiens, UniProt P01116, G12C); assay: Binding to KRAS G12C mutant, compound binding rate by LC-MS; conditions: final compound concentration 2 μM, 1 μM protein, 2 hours at 25° C.
T2 construct: G12C K-Ras4B (1-169) protein, which was a KRAS G12C mutant; His tag (N, cleaved yes); made in house; host or cells: E. coli BL21 (DE3)
Procedure, shortened: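 Covalent labelling at 2 μM final compound on a mix of 1 μM each wild-type and G12C K-Ras4B (1-169) (E. coli-expressed, tag removed) in 1×TBS, 0.1 mM TCEP, 2 h at 25° C., quenched with formic acid. Intact-protein ESI Q-TOF LC-MS; binding rate from adduct vs unbound protein signal, graded A–E in 20% bands.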

[3] = system: NCI-H358 cells; assay: Growth inhibition of KRAS-G12C mutant cell line NCI-H358 (CellTiter-Glo 2.0); assay type: cell-based; conditions: Homo sapiens, 72 h; NCI-H358, 3-day culture with compound
Description: KRAS-G12C mutant human lung cancer cell line NCI-H358 cells (ATCC, Cat #: CRL-5807) were suspended in RPMI1640 medium (manufactured by Fujifilm Wako Pure Chemical Corp.) containing 10% fetal bovine serum. The cell suspension was seeded at 500 cells/well into the wells of a 384-well flat-bottom microplate and cultured at 37° C. for 1 day in an incubator containing 5% CO2. The compound of the present invention was dissolved in DMSO and diluted with DMSO such that the concentration of the test compound was 500 times the final concentration. The solution of the test compound in DMSO was diluted with the medium used for suspending the cells, and the resultant was added to each well of the cell culture plate such that the final concentration of DMSO was 0.2%, followed by culture at 37° C. for another 3 days in an incubator containing 5% CO2.
Growth inhibition rate (%)=(C−T)/(C)×100 • T: the emission intensity in a well supplemented with the test compound. • C: the emission intensity in a well not supplemented with the test compound.

| Structure (SMILES) | IC50 [1] [nM] | binding rate for G12C K-Ras4B (1-169) [2] | IC50 [3] [nM] |
| --- | --- | --- | --- |
| C=CC(=O)N1CC(NC(=O)c2c(C)nc(CNc3cc(C(C)(C)C)c(Cl)cc3O)n2CCCC)C1 [Example 43, N-(1-Acryloylazetidin-3-yl)-1-butyl-2-(((5-(tert-butyl)-4-chloro-2-hydroxyphenyl)amino)methyl)-4-methyl-1H-imidazole-5-carboxamide] | 7 | A (80% or more) | 351 |
| C=CC(=O)N1CC(NC(=O)c2cnc(CNc3cc(C(C)(C)C)c(Cl)cc3O)n2CCN(C)C)C1 [Example 38, N-(1-Acryloylazetidin-3-yl)-2-(((5-(tert-butyl)-4-chloro-2-hydroxyphenyl)amino)methyl)-1-(2-(dimethylamino)ethyl)-1H-imidazole-5-carboxamide] | 9 | A (80% or more) | 708 |
| C=CC(=O)N1CC(N(CC)C(=O)c2ccc(CNc3cc(C(C)(C)C)c(Cl)cc3O)o2)C1 [Example 5, N-(1-Acryloylazetidin-3-yl)-5-(((5-(tert-butyl)-4-chloro-2-hydroxyphenyl)amino)methyl)-N-ethylfuran-2-carboxamide] | 12 | A (80% or more) | 699 |
| C=CC(=O)N1CC(NC(=O)c2c(C)nc(CNc3cc(C(C)(C)C)c(Cl)cc3O)n2C2CCCC2)C1 [Example 45, N-(1-Acryloylazetidin-3-yl)-2-(((5-(tert-butyl)-4-chloro-2-hydroxyphenyl)amino)methyl)-1-cyclopentyl-4-methyl-1H-imidazole-5-carboxamide] | 16 | A (80% or more) | 576 |
| C=CC(=O)N1CC(NC(=O)c2ccc(CNc3cc(C(C)(C)C)c(Cl)cc3O)o2)C1 [Example 1, N-(1-Acryloylazetidin-3-yl)-5-(((5-(tert-butyl)-4-chloro-2-hydroxyphenyl)amino)methyl)furan-2-carboxamide] | 326 | A (80% or more) | 4110 |
| C=CC(=O)N1CC(NC(=O)c2c(C)nc(CNc3cc(C(C)(C)C)c(Cl)cc3O)n2Cc2ccccc2)C1 [Example 40, N-(1-Acryloylazetidin-3-yl)-1-benzyl-2-(((5-(tert-butyl)-4-chloro-2-hydroxyphenyl)amino)methyl)-4-methyl-1H-imidazole-5-carboxamide] | 13 | A (80% or more) | 535 |
| C=CC(=O)N1CC(NC(=O)c2c(C)nc(CNc3cc(C(C)(C)C)c(Cl)cc3O)n2Cc2cccnc2)C1 [Example 46, N-(1-Acryloylazetidin-3-yl)-2-(((5-(tert-butyl)-4-chloro-2-hydroxyphenyl)amino)methyl)-4-methyl-1-(pyridin-3-ylmethyl)-1H-imidazole-5-carboxamide] | 5 | A (80% or more) | 916 |
| C=CC(=O)N1CC(NC(=O)c2cnc(CNc3cc(C(C)(C)C)c(C)cc3O)n2C)C1 [Example 68, N-(1-Acryloylazetidin-3-yl)-2-(((5-(tert-butyl)-2-hydroxy-4-methylphenyl)amino)methyl)-1-methyl-1H-imidazole-5-carboxamide] | 33 | A (80% or more) | – |
| C=CC(=O)N1CC(NC(=O)c2cnc(CNc3cc(C(C)(C)C)c(Cl)cc3O)o2)C1 [Example 11, N-(1-Acryloylazetidin-3-yl)-2-(((5-(tert-butyl)-4-chloro-2-hydroxyphenyl)amino)methyl)oxazole-5-carboxamide] | 123 | B (60% or more and less than 80%) | – |
| C=CC(=O)N1CC(NC(=O)c2cnc(CNc3cc(C(C)C(F)(F)F)c(Cl)cc3O)n2C)C1 (stereo not drawn) [Example 59, N-(1-Acryloylazetidin-3-yl)-2-(((4-chloro-2-hydroxy-5-(1,1,1-trifluoropropan-2-yl)phenyl)amino)methyl)-1-methyl-1H-imidazole-5-carboxamide] | 140 | B (60% or more and less than 80%) | – |
| C=CC(=O)N1CC(NC(=O)c2cnc(CNc3cc(C(C)(C)C)c(Cl)cc3O)[nH]2)C1 [Example 26, N-(1-Acryloylazetidin-3-yl)-2-(((5-(tert-butyl)-4-chloro-2-hydroxyphenyl)amino)methyl)-1H-imidazole-5-carboxamide] | 212 | A (80% or more) | – |
| C=CC(=O)N1CC(NC(=O)c2cnc(CNc3cc(C(C)(C)C)c(C=C)cc3O)n2C)C1 [Example 69, N-(1-Acryloylazetidin-3-yl)-2-(((5-(tert-butyl)-2-hydroxy-4-vinylphenyl)amino)methyl)-1-methyl-1H-imidazole-5-carboxamide] | 89 | B (60% or more and less than 80%) | – |
| C=CC(=O)N1CC(NC(=O)c2coc(CNc3cc(C(C)(C)C)c(Cl)cc3O)n2)C1 [Example 13, N-(1-Acryloylazetidin-3-yl)-2-(((5-(tert-butyl)-4-chloro-2-hydroxyphenyl)amino)methyl)oxazole-4-carboxamide] | 735 | A (80% or more) | – |
| C=CC(=O)N1CC(NC(=O)c2cc(CNc3cc(C(C)(C)C)c(Cl)cc3O)ccn2)C1 [Example 16, N-(1-Acryloylazetidin-3-yl)-4-(((5-(tert-butyl)-4-chloro-2-hydroxyphenyl)amino)methyl)picolinamide] | 3010 | A (80% or more) | – |

The remaining lines, values ahead:

| IC50 [1] [nM] | binding rate for G12C K-Ras4B (1-169) [2] | IC50 [3] [nM] | Structure (SMILES) |
| --- | --- | --- | --- |
| 17 | A (80% or more) | 399 | C=CC(=O)N1CC(NC(=O)c2c(C)nc(CNc3cc(C(C)(C)C)c(C)cc3O)n2C)C1 [Example 76, N-(1-Acryloylazetidin-3-yl)-2-(((5-(tert-butyl)-2-hydroxy-4-methylphenyl)amino)methyl)-1,4-dimethyl-1H-imidazole-5-carboxamide] |
| 65 | A (80% or more) | 1360 | C=CC(=O)N1CC(NC(=O)c2c(C)nn(Cc3cc(C(C)(C)C)c(Cl)cc3O)c2C)C1 [Example 96, N-(1-Acryloylazetidin-3-yl)-1-(5-(tert-butyl)-4-chloro-2-hydroxybenzyl)-3,5-dimethyl-1H-pyrazole-4-carboxamide] |
| 164 | A (80% or more) | – | C=CC(=O)N1CC(NC(=O)c2c(C)nc(CNc3cc4c(cc3O)CCC4(C)C)n2C)C1 [Example 72, N-(1-Acryloylazetidin-3-yl)-2-(((6-hydroxy-3,3-dimethyl-2,3-dihydro-1H-inden-5-yl)amino)methyl)-1,4-dimethyl-1H-imidazole-5-carboxamide] |
| > 10000 | E (less than 20%) | – | C=CC(=O)N1CC(NC(=O)c2ccc(CNc3cc(C(C)(C)C)c(Cl)cc3OC)o2)C1 [Reference Example1, N-(1-Acryloylazetidin-3-yl)-5-(((5-(tert-butyl)-4-chloro-2-methoxyphenyl)amino)methyl)furan-2-carboxamide, reference compound] |
| 205 | B (60% or more and less than 80%) | – | C=CC(=O)N1CC(NC(=O)c2cnc(C(O)c3cc(C(C)(C)C)c(Cl)cc3O)n2C)C1 (stereo not drawn) [Example 98, N-(1-Acryloylazetidin-3-yl)-2-((5-(tert-butyl)-4-chloro-2-hydroxyphenyl) (hydroxy)methyl)-1-methyl-1H-imidazole-5-carboxamide] |
| 109 | C (40% or more and less than 60%) | – | Cc1nc(CNc2cc(C(C)(C)C)c(Cl)cc2O)sc1C(=O)NC1CN(C(=O)/C=C/CN(C)C)C1 [Example 88, (E)-2-(((5-(tert-Butyl)-4-chloro-2-hydroxyphenyl)amino)methyl)-N-(1-(4-(dimethylamino)but-2-enoyl)azetidin-3-yl)-4-methylthiazole-5-carboxamide] |
| 225 | B (60% or more and less than 80%) | – | C=CC(=O)N1CC(NC(=O)c2c(C)nc(C(C)Nc3cc(C(C)(C)C)c(Cl)cc3O)n2C)C1 (stereo not drawn) [Example 81, N-(1-Acryloylazetidin-3-yl)-2-(1-((5-(tert-butyl)-4-chloro-2-hydroxyphenyl)amino)ethyl)-1,4-dimethyl-1H-imidazole-5-carboxamide] |
